The text below walks through data of patent US7498357B2, “Chalcone compounds” (Takara Bio Inc., priority 2003, dated 2009).

For assay [1], the target named is T1, aldose reductase derived from human muscle cells (Homo sapiens, UniProt P15121).
T1 construct: purchased Wako Pure Chemical Industries
The experiment in a line: Inhibitory activities of aldose reductase. Format: biochemical. As to conditions: for inhibitory activities of aldose reductase (in words): concentrations as in Table 1; for inhibition at 10 µM: final concentration 10 μM; for inhibition at 10 µM / inhibition at 20 µM / inhibition at 40 µM: average of two values, read-out: Inhibitory Ratio (%) of Aldose Reductase; for inhibition at 20 µM: final concentration 20 μM; for inhibition at 40 µM: final concentration 40 μM. As to the method:
Inhibitory activities of aldose reductase of the compounds prepared in Examples 1 to 9 (TB3, TB4, TB5, TB6, TB7, TB8, TB9, compound (C081) or compound (C042)) were measured by the following method. Twenty microliters of 100 mM methylglyoxal was added to 10 μL of a sample (dissolved each compound in a 50% aqueous dimethyl sulfoxide solution), 100 μL of 0.2 M phosphate buffer (pH 6.2), 20 μL of 1 mM NADPH (phosphate buffer), and 10 μL of a solution of aldose reductase derived from human muscle cells (0.1 U/mL, manufactured by Wako Pure Chemical Industries, phosphate buffer). After 30 seconds passed, change in absorbance of NADPH at 340 nm was determined for 180 seconds. A 50% aqueous dimethyl sulfoxide solution was used as a negative control in place of the sample. In addition, the absorbance was determined using distilled water as a blank of each sample in place of the methylglyoxal solution. The found values are expressed as an average of the values in two experimental values. The inhibitory ratio (%) of aldose reductase was calculated in accordance with the following formula. Inhibitory Ratio (%)=[1−[(ΔAs−ΔAsb)/(ΔAc−ΔAcb)]]×100
Here, ΔAs and ΔAc are changes in absorbance per 1 minute of a sample solution, and a negative control solution, respectively, and ΔAsb and ΔAcb are changes in absorbance per 1 minute of blank of a sample solution, and a negative control solution, respectively.

In another assay the test system is RAW 264.7 cells. Kind of assay: Suppressive activities of NO production (LPS-induced, NO2- by Griess reagent). In kind it is cell-based. As to conditions: for inhibition at 10 µM / inhibition at 20 µM / inhibition at 5 µM: Mus musculus, LPS, 16 hours, read-out: Suppressive Ability for Induction of NO Production by LPS (%); for inhibition at 10 µM: RAW264.7, 10 μM; for inhibition at 20 µM: RAW264.7, 20 μM; for suppression of the induction of NO production by LPS (in words): concentrations as in Table 2; for inhibition at 5 µM: RAW264.7, 5 μM. As to the method: Suppressive activities of NO production of the compounds prepared in Examples 1 to 9 (TB3, TB4, TB5, TB6, TB7, TB8, TB9, compound (C081) and compound (C042)) were measured by the following method. RAW 264.7 cells (ATCC TIB 71) were suspended in Dulbecco's modified Eagle's medium (manufactured by Sigma, D5796) containing 10% fetal bovine serum (manufactured by Bio Whittaker, 14-506F), so as to have a concentration of 4×10^5 cells/mL, and the suspension was put to each well of a 48-well microtiter plate in an amount of 500 μL per well. The cells were cultured at 37° C. in the presence of 5% carbon dioxide gas. After 24 hours, the medium was exchanged with Dulbecco's modified Eagle's medium (manufactured by Bio Whittaker, 12-917F) containing 10% fetal bovine serum (manufactured by Bio Whittaker), 2 mM L-glutamine (manufactured by Life Tech Oriental Co., Ltd., 25030-149) without containing phenol red. A 10 mM, 5 mM, or 2.5 mM TB3, TB4, TB5, TB6, TB7, TB8, TB9, compound (C081) or compound (C042) (all are dimethyl sulfoxide solution) was added to each well in an amount of 1 μL per well. After additional 1 hour of culture, a 100 μg/mL aqueous lipopolysaccharide (LPS, manufactured by Sigma, L-2010) solution was added to each well in an amount of 5 μL per well, and the cells were cultured for 16 hours. Thereafter, the concentration of NO2^− which was produced by oxidation of NO in the medium was determined. In addition, there was set a group with addition of dimethyl sulfoxide in place of the each compound as a control. After the above-mentioned culture, 100 μL of a 4% grease reagent (manufactured by Sigma, G4410) was added to 100 μL of the supernatant of the culture medium, and the mixture was allowed to stand at room temperature for 15 minutes. Thereafter, absorbance at 540 nm was determined. The concentration of NO2^− in the medium was calculated from a calibration curve prepared from known concentrations of NaNO2 (manufactured by Sigma, S2252). All of the determinations were carried out twice. The suppressive ability of NO production of the each compound was calculated in accordance with the following formula.
(In general: Griess reagent forms a coloured azo dye with nitrite.)

For `CC(C)CCc1c(O)ccc(C(=O)/C=C/c2ccc(O)cc2)c1O` [Compound (C042), 1-[2,4-dihydroxy-3-(3-methylbutyl)phenyl]-3-(4-hydroxyphenyl)-2-propen-1-one], in assay [1], the “inhibitory activities of aldose reductase (in words)” value is recorded as “inhibitory activities of aldose reductase in a concentration-dependent manner”, the inhibition at 10 µM stood at 47.8% and the inhibition at 20 µM came to 68.7%. In addition, in the assay on RAW 264.7 cells, the inhibition at 10 µM was 19.3%, the inhibition at 20 µM is 50.2% and the “suppression of the induction of NO production by LPS (in words)” value was “suppressed the induction of NO production by LPS in a concentration-dependent manner”.

Turning to `COc1ccc(C(=O)/C=C/c2ccc(O)cc2)c(O)c1C/C=C(\C)C/C=C/C(C)(C)O` [Compound (C081), 1-[2-hydroxy-3-(7-hydroxy-3,7-dimethyl-2,5-octadienyl)-4-methoxyphenyl]-3-(4-hydroxyphenyl)-2-propen-1-one], in assay [1], the “inhibitory activities of aldose reductase (in words)” value is “inhibitory activities of aldose reductase in a concentration-dependent manner”, the inhibition at 10 µM was 11.9%, the inhibition at 20 µM was 16.2% and the inhibition at 40 µM turned out to be 26.7%. For the same compound, in the assay with RAW 264.7 cells, the inhibition at 10 µM is 31.6%, the inhibition at 20 µM was 53.7% and the “suppression of the induction of NO production by LPS (in words)” value was “suppressed the induction of NO production by LPS in a concentration-dependent manner”.

For `CC(C)=CCCC(C)(O)C1Cc2c(ccc(C(=O)/C=C/c3ccc(O)cc3)c2O)O1` (centres unmarked) [TB3, 1-[2,3-dihydro-4-hydroxy-2-(1-hydroxy-1,5-dimethyl-4-hexenyl)-benzofuran-5-yl]-3-(4-hydroxyphenyl)-2-propen-1-one], in assay [1], the “inhibitory activities of aldose reductase (in words)” value is “inhibitory activities of aldose reductase in a concentration-dependent manner”, the inhibition at 10 µM turned out to be 14.2%, the inhibition at 20 µM came out at 30.1% and the inhibition at 40 µM turned out to be 53.8%. Further, in the assay on RAW 264.7 cells, the inhibition at 5 µM was found to be 8.9%, the inhibition at 10 µM turned out to be 9.5%, the inhibition at 20 µM is 43.8% and the “suppression of the induction of NO production by LPS (in words)” value is “suppressed the induction of NO production by LPS in a concentration-dependent manner”.

In the case of `COc1ccc(C(=O)/C=C/c2ccc(O)cc2)c2c1CC(C(C)(C)O)O2` (centres unmarked) [TB4, 1-[2,3-dihydro-2-(1-hydroxy-1-methylethyl)-4-methoxybenzofuran-7-yl]-3-(4-hydroxyphenyl)-2-propen-1-one], in assay [1], the “inhibitory activities of aldose reductase (in words)” value is “inhibitory activities of aldose reductase in a concentration-dependent manner”, the inhibition at 10 µM was determined as 57.4% and the inhibition at 20 µM is 57.9%. For the same compound, in the assay on RAW 264.7 cells, the inhibition at 5 µM came to 32.6%, the inhibition at 10 µM came out at 56.4%, the inhibition at 20 µM came to 63.7% and the “suppression of the induction of NO production by LPS (in words)” value is “suppressed the induction of NO production by LPS in a concentration-dependent manner”.

On to `C/C(=C\Cc1c(O)ccc(C(=O)/C=C/c2ccc(O)cc2)c1O)CCC(O)C(C)(C)O` (centres unmarked) [TB5, 1-[2,4-dihydroxy-3-(6,7-dihydroxy-3,7-dimethyl-2-octenyl)phenyl]-3-(4-hydroxyphenyl)-2-propen-1-one], for which, in assay [1], the “inhibitory activities of aldose reductase (in words)” value is on record as “inhibitory activities of aldose reductase in a concentration-dependent manner”, the inhibition at 10 µM came out at 35.1%, the inhibition at 20 µM worked out at 49.7% and the inhibition at 40 µM is 66.7%. For the same compound, in the assay on RAW 264.7 cells, the inhibition at 5 µM stood at 17.9%, the inhibition at 10 µM stood at 35.2%, the inhibition at 20 µM was found to be 76% and the “suppression of the induction of NO production by LPS (in words)” value is recorded as “suppressed the induction of NO production by LPS in a concentration-dependent manner”.

For `CCOC(C)(C)C(O)CC/C(C)=C/Cc1c(O)ccc(C(=O)/C=C/c2ccc(O)cc2)c1O` (centres unmarked) [TB6, 1-[3-(7-ethoxy-6-hydroxy-3,7-dimethyl-2-octenyl)-2,4-dihydroxyphenyl]-3-(4-hydroxyphenyl)-2-propen-1-one], in assay [1], the “inhibitory activities of aldose reductase (in words)” value was “inhibitory activities of aldose reductase in a concentration-dependent manner”, the inhibition at 10 µM turned out to be 41.9%, the inhibition at 20 µM was found to be 56.5% and the inhibition at 40 µM worked out at 66.8%. Also, in the assay with RAW 264.7 cells, the inhibition at 5 µM was determined as 17.3%, the inhibition at 10 µM came to 29.4%, the inhibition at 20 µM was 62.2% and the “suppression of the induction of NO production by LPS (in words)” value was “suppressed the induction of NO production by LPS in a concentration-dependent manner”.

As to `COc1ccc(C(=O)/C=C/c2ccc(O)cc2)c(O)c1CC1C2(C)CCC(O2)C1(C)C` (centres unmarked) [TB7, 1-[3-(2,5-epoxy-2,6,6-trimethyl-cyclohexylmethyl)-2-hydroxy-4-methoxyphenyl]-3-(4-hydroxyphenyl)-2-propen-1-one], in assay [1], the “inhibitory activities of aldose reductase (in words)” value is reported as “inhibitory activities of aldose reductase in a concentration-dependent manner”, the inhibition at 10 µM amounted to 20.1%, the inhibition at 20 µM was 33.8% and the inhibition at 40 µM turned out to be 54.3%. Also, in the assay on RAW 264.7 cells, the inhibition at 5 µM was 12.2%, the inhibition at 10 µM worked out at 23.9%, the inhibition at 20 µM came out at 42.9% and the “suppression of the induction of NO production by LPS (in words)” value was “suppressed the induction of NO production by LPS in a concentration-dependent manner”.

On to `COc1ccc(C(=O)/C=C/c2ccc(O)cc2)c(O)c1C/C=C(\C)C/C=C/C(C)(C)OO` [TB8, 1-[2-hydroxy-3-(7-hydroperoxy-3,7-dimethyl-2,5-octadienyl)-4-methoxyphenyl]-3-(4-hydroxyphenyl)-2-propen-1-one], for which, in assay [1], the “inhibitory activities of aldose reductase (in words)” value is given as “inhibitory activities of aldose reductase in a concentration-dependent manner”, the inhibition at 10 µM was 17.9%, the inhibition at 20 µM came out at 32.7% and the inhibition at 40 µM was found to be 44.2%. In the assay on RAW 264.7 cells, the inhibition at 5 µM amounted to 12.2%, the inhibition at 10 µM came out at 18.7%, the inhibition at 20 µM came out at 36.9% and the “suppression of the induction of NO production by LPS (in words)” value is recorded as “suppressed the induction of NO production by LPS in a concentration-dependent manner”.

Consider `C=C(C)C(CC/C(C)=C/Cc1c(OC)ccc(C(=O)/C=C/c2ccc(O)cc2)c1O)OO` (centres unmarked) [TB9, 1-[2-hydroxy-3-(6-hydroperoxy-3,7-dimethyl-2,7-octadienyl)-4-methoxyphenyl]-3-(4-hydroxyphenyl)-2-propen-1-one], for which, in assay [1], the “inhibitory activities of aldose reductase (in words)” value was “inhibitory activities of aldose reductase in a concentration-dependent manner”, the inhibition at 10 µM was 31.6%, the inhibition at 20 µM is 44.7% and the inhibition at 40 µM was 57.3%. In the assay with RAW 264.7 cells, the inhibition at 5 µM was found to be 11.2%, the inhibition at 10 µM stood at 29.2%, the inhibition at 20 µM was determined as 49.6% and the “suppression of the induction of NO production by LPS (in words)” value was “suppressed the induction of NO production by LPS in a concentration-dependent manner”.
